In ChEMBL document CHEMBL4828769, “Discovery of AS-0141, a Potent and Selective Inhibitor of CDC7 Kinase for the Treatment of Solid Cancers” (J Med Chem, 2021):

What was measured:
[1] = Inhibition of human CDC7/ASK using FITC-labelled MCM2 substrate in presence of 5 uM of ATP
[2] = Inhibition of human CDC7/ASK using FITC-labelled MCM2 substrate in presence of 1 mM of ATP
[3] = Inhibition of human CDC7/ASK using FITC-labelled MCM2 substrate preincubated for 30 mins followed by substrate addition and measured after 5 hrs in presence of 1 mM of ATP
[4] = target: Cell division cycle 7-related protein kinase (Homo sapiens, UniProt O00311); assay: Inhibition of CDC7 in human COLO205 cells assessed as reduction in MCM2 phosphorylation at S53 residue at 0.1 uM incubated for 48 hrs by Western blot analysis relative to control; assay type: cell-based; settings: COLO 205
Cell division cycle 7-related protein kinase, sequence (O00311 whole entry, looked up): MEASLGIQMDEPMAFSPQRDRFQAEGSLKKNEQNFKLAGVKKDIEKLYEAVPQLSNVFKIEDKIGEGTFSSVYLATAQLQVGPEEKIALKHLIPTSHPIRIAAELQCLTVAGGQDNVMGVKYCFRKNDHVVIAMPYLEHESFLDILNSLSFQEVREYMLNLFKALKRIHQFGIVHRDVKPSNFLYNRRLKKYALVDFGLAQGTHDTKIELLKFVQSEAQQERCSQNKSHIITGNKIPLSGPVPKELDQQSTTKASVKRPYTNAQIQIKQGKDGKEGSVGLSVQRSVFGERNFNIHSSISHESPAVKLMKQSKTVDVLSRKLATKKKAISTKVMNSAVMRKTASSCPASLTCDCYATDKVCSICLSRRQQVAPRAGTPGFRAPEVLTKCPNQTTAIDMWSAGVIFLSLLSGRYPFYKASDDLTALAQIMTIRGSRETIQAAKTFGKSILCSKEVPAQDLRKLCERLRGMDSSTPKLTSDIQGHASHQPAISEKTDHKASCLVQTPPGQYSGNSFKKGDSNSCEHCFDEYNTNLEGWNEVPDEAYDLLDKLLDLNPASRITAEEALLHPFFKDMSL

[5] = tested on: COLO 205; assay: Induction of cell cycle arrest in human COLO205 cells assessed as accumulation of cells at sub-G1 phase at 1 uM incubated for 48 hrs by propidium iodide staining based flow cytometry analysis; assay type: functional
[6] = Metabolic stability in human liver microsomes assessed as parent compound remaining after 30 mins; assay type: ADME, Microsome; settings: microsomes, 0.5 h
[7] = Metabolic stability in mouse liver microsomes assessed as parent compound remaining after 30 mins; assay type: ADME, Microsome; settings: microsomes, 0.5 h

IC50 [1] [nM]	IC50 [2] [nM]	IC50 [3] [nM]	inhibition [4] [%]	Stability [6]	Stability [7]	Structure (SMILES)	Activity [5] [%]
16	856	–	–	–	–	CCOC(=O)C1=C(N2CCCCC2)O/C(=C\c2c[nH]c3ncccc23)C1=O	–
72	6010	–	–	–	–	CCOC(=O)C1=C(N2CCN(CCO)CC2)O/C(=C\c2c[nH]c3ncccc23)C1=O	–
538	–	–	–	–	–	CCOC(=O)C1=C(NCCN(C)C)O/C(=C\c2c[nH]c3ncccc23)C1=O	–
2.9	364	0.15	70	–	–	CCOC(=O)C1=C(NN2CCOCC2)O/C(=C\c2c[nH]c3ncccc23)C1=O	46.4
10	543	1.3	18	–	–	CCOC(=O)C1=C(NN2CCN(CCO)CC2)O/C(=C\c2c[nH]c3ncccc23)C1=O	0
35	2680	–	–	–	–	CCOC(=O)C1=C(N2CCOCC2)O/C(=C\c2c[nH]c3ncccc23)C1=O	–
6.9	396	2.4	67	–	–	CCOC(=O)C1=C(NN(CC)CC)O/C(=C\c2c[nH]c3ncccc23)C1=O	14.5
5.6	394	3.9	–	Unstable	Unstable	CCOC(=O)C1=C(N2CCCCCC2)O/C(=C\c2c[nH]c3ncccc23)C1=O	–
5.9	410	2	35	–	–	CCOC(=O)C1=C(NN(C)C2CCCCC2)O/C(=C\c2c[nH]c3ncccc23)C1=O	33
133	> 10000	> 10000	–	–	–	CCOC(=O)C1=C(N2CCCN(C)CC2)O/C(=C\c2c[nH]c3ncccc23)C1=O	–
6.9	694	1.1	100	–	–	CCOC(=O)C1=C(NN2CCCC2)O/C(=C\c2c[nH]c3ncccc23)C1=O	17.4
2.4	278	0.6	–	–	–	CCOC(=O)C1=C(Nc2ccccc2Cl)O/C(=C\c2c[nH]c3ncccc23)C1=O	–
21	–	–	–	–	–	CCOC(=O)C1=C(NC(C)C)O/C(=C\c2c[nH]c3ncccc23)C1=O	–

Continued, compound first:

Structure (SMILES)	IC50 [1] [nM]	IC50 [2] [nM]	IC50 [3] [nM]	inhibition [4] [%]	Stability [6]	Stability [7]	Activity [5] [%]
CCOC(=O)C1=C(NN2CCN(C)CC2)O/C(=C\c2c[nH]c3ncccc23)C1=O	12	1070	4.5	63	–	–	15.9
CCOC(=O)C1=C(NCCOC)O/C(=C\c2c[nH]c3ncccc23)C1=O	84	–	> 10000	–	–	–	–
CCOC(=O)C1=C(N(C)C2CCCCC2)O/C(=C\c2c[nH]c3ncccc23)C1=O	9.5	954	23	–	–	–	–
CCOC(=O)C1=C(NC2CCCC2)O/C(=C\c2c[nH]c3ncccc23)C1=O	13	1470	–	–	–	–	–
CCOC(=O)C1=C(N2CCC(CO)CC2)O/C(=C\c2c[nH]c3ncccc23)C1=O	15	1340	10	–	–	–	–
CCOC(=O)C1=C(NC2CCCCC2)O/C(=C\c2c[nH]c3ncccc23)C1=O	7.7	667	53	–	–	–	–
CCOC(=O)C1=C(NC2CCN(C)CC2)O/C(=C\c2c[nH]c3ncccc23)C1=O	93	–	–	–	–	–	–
CCOC(=O)C1=C(NN2CCCCCC2)O/C(=C\c2c[nH]c3ncccc23)C1=O	5	451	0.9	100	–	–	23.2
CCOC(=O)C1=C(N2CCC(O)CC2)O/C(=C\c2c[nH]c3ncccc23)C1=O	14	1260	23	–	–	–	–
CCNC1=C(C(=O)OCC)C(=O)/C(=C/c2c[nH]c3ncccc23)O1	32	–	–	–	–	–	–
